Results taken from patent US20230285577A1, “POLYSACCHARIDE DERIVATIVE, POLYSACCHARIDE DERIVATIVE-DRUG CONJUGATE, AND METHOD FOR PRODUCING SAME” (priority 2020, published 2023).

What was measured:
[1] = test system: AB22 cells (mouse mesothelioma cells); experiment: Cell toxicity evaluation (WST assay) of HA-ABA-PMX in AB22; type: cell-based; settings: 48 hours; for Cell growth inhibition effect (cell viability): PMX 10^−4 to 10 μg/mL
Method: (§1) As with the HA-ABA, the cell toxicity of HA-ABA-PMX in MeT-5A (human mesothelial cell line) and AB22 cells (mouse mesothelioma cells) was evaluated by WST assay.
(§2) Specifically, MeT-5A (human mesothelial cell line) and AB22 cells (mouse mesothelioma cells) were seeded on 24-well plates and incubated for 24 hours. The medium was then replaced with medium having HA-ABA-PMX dissolved at different PMX concentrations (10^−4 μg/mL, 10^−3 μg/mL, 10^−2 μg/mL, 10^−1 μg/mL, 1 μh/mL, 10 μg/mL). Cell viability (%) 48 hours after sample addition was then measured by WST-8 assay (Cell Counting Kit-8, Dojindo).

[2] = test system: MeT-5A (human mesothelial cell line); experiment: Cell toxicity evaluation (WST assay) of HA-ABA-PMX in MeT-5A; type: cell-based; settings: 48 hours; for Cell growth inhibition effect (cell viability): PMX 10^−4 to 10 μg/mL
Method: as §1, §2

[3] = Release test of PMX from HA-ABA-PMX (dialysis tube, PBS); type: physicochemical
Method: The release behavior or PMX from HA-ABA-PMX at different pH values was investigated using a dialysis tube (MWCO: 1 kDa). […] The external solution (sustained release solution) was collected at specific time points, and new PBS was substituted for the entire amount. The drug concentration in the collected external solution (sustained release solution) was measured by UV-vis, and the release rate of the drug PMX was calculated.

[4] = Release test of Van from AL-ABA-Van solution (dialysis membrane, PBS); type: physicochemical
Method: The release behavior or Van from an AL-ABA-Van solution at different pH values was investigated using a dialysis membrane (pore size: 50 kDa). Specifically, 1 mL of an AL-ABA-Van solution of the AL-ABA-Van obtained in Example I-7 above dissolved in […] of pure water was injected into a dialysis membrane cut to 9 cm, and both ends of the dialysis membrane were tied with kite thread. This was placed in an 80 mL security, container, 79 mL of PBS solution was added, and the mixture was stirred at the maximum rotational speed with a 1 cm stirrer tip in a 37° C. thermostatic tank. 1.0 mL samples were taken from the solution in the security container at specific time points (1, 2, 3, 4, 6, 8, 12, 24, and 48 hours). The sample solutions were subjected to UV-vis spectrum measurement, the drug concentration in the solutions was assayed based on absorbance, and the release rate of the drug Van (vancomycin release %) was calculated. The above measurements were conducted with pH 5.0, pH 6.0 and pH 7.4 PBS solutions (n=4 at each pH).
For purposes of comparison as control tests, the same release testing was also performed with the AL-ABA-Van solution replaced by a mixed solution (AL+Van) of sodium alginate and vancomycin obtained by dissolving 3 mg/mL of sodium alginate (AL) (IL-6G, viscosity 50 to 80 mPa·s (1%), manufactured by Kimica Co., Ltd.) and 8.6 mg/mL of vancomycin (Van) in pure water, and by a solution (Van only) obtained by dissolving 8.6 mg/mL of vancomycin (Van) in pure water.

[5] = test system: AB22 cells (mouse mesothelioma cells); experiment: Cell toxicity evaluation (WST assay) of HA-ABA-DOX in AB22; type: cell-based; settings: 48 hours; for Cell growth inhibition effect (cell viability): DOX 10^−3 to 100 μg/mL
Method: As with the HA-ABA, the cell toxicity of HA-ABA-DOX in AB22 cells (mouse mesothelioma cells) was evaluated by WST assay.
Specifically, AB22 cells (mouse mesothelioma cells) were seeded on 24-well plates and incubated for 24 hours. The medium was then replaced with media having […] dissolved at different DOX concentrations (10^−3 μg/mL, 10^−2 μg/mL, 10^−1 μg/mL, 1 μg/mL, 10 μg/mL, 100 μg/mL). Cell viability (%) 48 hours after sample addition was then measured by WST-8 assay (Cell Counting Kit-8 Dojindo).
For purposes of comparison as a control test, cell toxicity was also evaluated using free DOX in place of HA-ABA-DOX.

[6] = Release test of DOX from HA-ABA-DOX (dialysis tube, PBS); type: physicochemical; settings: PBS 37° C., pH 5.0, 6.0, 7.4
Method: Release of DOX from HA-ABA-DOX under different pH conditions was investigated in the same manner as in Example II-2. Specifically, 1 mL of an aqueous solution of the HA-ABA-DOX (1 mg/mL) obtained in Example II-3 above was placed in a dialysis tube (MWCO: 1 kDa), and shaken at 50 rpm while being incubated with 79 mL of PBS (37° C., pH=5.0, 6.0 7.4). The external solution (sustained release solution) was collected at specific time points, and new PBS was substituted for the entire amount. The drug concentration in the collected external solution (sustained release solution) was measured by UV-vis, and the release rate of the drug DOX was calculated.

Nc1nc2[nH]cc(CCc3ccc(C(=O)N[C@@H](CCC(=O)O)C(=O)O)cc3)c2c(=O)[nH]1 [Free PMX, Pemetrexed, reference compound]
Cell growth inhibition effect (cell viability) [1]: dose-dependent cell growth inhibition effects
Cell growth inhibition effect (cell viability) [2]: dose-dependent cell growth inhibition effects
PMX released ([3]; control solutions, within 2 hours): almost all

CN[C@H](CC(C)C)C(=O)N[C@H]1C(=O)N[C@@H](CC(N)=O)C(=O)N[C@H]2C(=O)N[C@H]3C(=O)N[C@H](C(=O)N[C@H](C(=O)O)c4cc(O)cc(O)c4-c4cc3ccc4O)[C@H](O)c3ccc(c(Cl)c3)Oc3cc2cc(c3O[C@@H]2O[C@H](CO)[C@@H](O)[C@H](O)[C@H]2O[C@H]2C[C@](C)(N)[C@H](O)[C@H](C)O2)Oc2ccc(cc2Cl)[C@H]1O [Van, Vancomycin, reference compound]
Van released ([4]; control solutions, first 10 hours, pH 5.0, 6.0, 7.4): almost all
pH dependence of Van release behavior ([4]; pH 5.0, 6.0, 7.4): no difference in release behavior depending on pH

COc1cccc2c1C(=O)c1c(O)c3c(c(O)c1C2=O)C[C@@](O)(C(=O)CO)C[C@@H]3O[C@H]1C[C@H](N)[C@H](O)[C@H](C)O1 [free DOX, Doxorubicin, reference compound]
Cell growth inhibition effect (cell viability) [5]: dose-dependent cell growth inhibition effects

benzaldehyde-modified alginic acid-vancomycin conjugate [AL-ABA-Van]
Van released (cumulative release rate) ([4]; PBS pH 5.0, 37° C., after 10 hours): over 80%
Van not released ([4]; PBS pH 7.4, 37° C., after 10 hours): ~50%
pH dependence of Van release behavior ([4]; pH 5.0, 6.0, 7.4): released more rapidly the lower the pH

benzaldehyde-modified hyaluronic acid-doxorubicin conjugate [HA-ABA-DOX]
pH dependence of DOX release [6]: selective drug release at low pH
Concentration depressing cell viability compared with free DOX [5]: depressed cell viability at lower concentrations
Cell growth inhibition effect (cell viability) [5]: dose-dependent cell growth inhibition effects

benzaldehyde-modified hyaluronic acid-pemetrexed conjugate [HA-ABA-PMX]
Concentration reducing cell viability compared with free PMX and HA-ADH-PMX [1]: reduced cell viability at lower concentrations
Cell growth inhibition effect (cell viability) [1]: dose-dependent cell growth inhibition effects
Concentration reducing cell viability compared with free PMX and HA-ADH-PMX [2]: reduced cell viability at lower concentrations
Cell growth inhibition effect (cell viability) [2]: dose-dependent cell growth inhibition effects
PMX released (cumulative drug release) ([3]; PBS pH 5.0, 37° C., after 24 hours): more than 80%
PMX not released ([3]; PBS pH 7.4, 37° C., after 24 hours): 40%
pH dependence of PMX release ([3]; pH 5.0, 6.0, 7.4): released more rapidly at lower pH values
